Series [1] has as its target T1, Estrogen-related receptor gamma (Homo sapiens, UniProt P62508).
T1 sequence (P62508 whole entry): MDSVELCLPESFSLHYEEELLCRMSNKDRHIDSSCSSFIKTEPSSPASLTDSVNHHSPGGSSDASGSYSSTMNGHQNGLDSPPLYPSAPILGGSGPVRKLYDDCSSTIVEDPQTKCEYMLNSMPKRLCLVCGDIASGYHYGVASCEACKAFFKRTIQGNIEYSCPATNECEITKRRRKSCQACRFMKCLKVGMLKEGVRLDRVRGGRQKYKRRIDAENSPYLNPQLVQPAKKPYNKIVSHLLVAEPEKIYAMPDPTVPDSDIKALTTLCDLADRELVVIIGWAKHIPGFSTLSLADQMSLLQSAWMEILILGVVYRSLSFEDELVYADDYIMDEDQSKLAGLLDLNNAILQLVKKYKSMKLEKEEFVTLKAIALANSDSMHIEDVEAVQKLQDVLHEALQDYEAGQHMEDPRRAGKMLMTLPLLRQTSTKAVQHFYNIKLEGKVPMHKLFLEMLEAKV

In series [2] the target is T2, Steroid hormone receptor ERR1 (Homo sapiens, UniProt P11474).
T2 sequence (P11474 whole entry): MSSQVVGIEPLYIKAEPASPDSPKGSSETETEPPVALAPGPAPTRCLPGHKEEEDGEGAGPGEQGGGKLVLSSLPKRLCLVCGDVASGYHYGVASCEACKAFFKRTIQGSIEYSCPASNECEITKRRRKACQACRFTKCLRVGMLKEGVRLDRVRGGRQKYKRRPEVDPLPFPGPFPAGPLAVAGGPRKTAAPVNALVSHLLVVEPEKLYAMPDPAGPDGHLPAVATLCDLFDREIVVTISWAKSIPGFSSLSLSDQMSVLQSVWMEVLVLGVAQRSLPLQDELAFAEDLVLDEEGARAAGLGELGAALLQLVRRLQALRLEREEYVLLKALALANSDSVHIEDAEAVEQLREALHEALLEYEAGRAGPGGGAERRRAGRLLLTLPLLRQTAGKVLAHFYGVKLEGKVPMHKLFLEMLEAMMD

Series [3] addresses T3, Estrogen receptor (Homo sapiens, UniProt P03372).
T3 sequence (P03372 whole entry): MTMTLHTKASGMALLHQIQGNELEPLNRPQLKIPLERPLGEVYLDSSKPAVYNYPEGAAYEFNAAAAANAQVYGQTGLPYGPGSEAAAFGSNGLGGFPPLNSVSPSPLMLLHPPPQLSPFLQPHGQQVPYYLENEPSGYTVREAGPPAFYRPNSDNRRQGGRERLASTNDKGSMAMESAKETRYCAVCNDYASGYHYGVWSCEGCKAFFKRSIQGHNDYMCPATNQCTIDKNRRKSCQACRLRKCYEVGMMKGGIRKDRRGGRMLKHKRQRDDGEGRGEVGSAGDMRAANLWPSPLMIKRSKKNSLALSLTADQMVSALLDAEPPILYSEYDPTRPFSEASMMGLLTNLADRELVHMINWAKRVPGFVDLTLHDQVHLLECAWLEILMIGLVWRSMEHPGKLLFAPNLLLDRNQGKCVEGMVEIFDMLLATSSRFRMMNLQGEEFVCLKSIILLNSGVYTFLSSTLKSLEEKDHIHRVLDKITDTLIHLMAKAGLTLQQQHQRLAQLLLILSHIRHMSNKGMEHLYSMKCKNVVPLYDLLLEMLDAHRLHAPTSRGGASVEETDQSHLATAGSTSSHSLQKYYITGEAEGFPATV

Series [4] can be described thus: Metabolic stability in human liver microsomes assessed as compound remaining at 1 uM after 30 mins in presence of NADPH regeneration system by LC-MS/MS analysis. The format is ADME, Microsome. The settings on record: read-out: Stability.
The target in series [5] is CYP3A4 (Homo sapiens, UniProt P08684). Put plainly: Inhibition of CYP3A4 in human liver microsomes assessed as reduction in midazolam 1-hydroxylase activity at 10 uM preincubated for 5 mins followed by NADPH addition and measured after 15 mins by LC-MS/MS analysis relative to control. The series is classed as ADME. The following applies: probe midazolam (1-hydroxylation).

The nature of series [6]: Metabolic stability in rat liver microsomes assessed as compound remaining at 1 uM after 30 mins in presence of NADPH regeneration system by LC-MS/MS analysis. The series is classed as ADME, Microsome. The settings on record: read-out: Stability.
For series [7], the target named is CYP2C9 (Homo sapiens, UniProt P11712). As to the kind of experiment: Inhibition of CYP2C9 in human liver microsomes assessed as reduction in tolbutamide 4-hydroxylase activity at 10 uM preincubated for 5 mins followed by NADPH addition and measured after 15 mins by LC-MS/MS analysis relative to control. The series is classed as ADME. The settings on record: probe tolbutamide (4-hydroxylation).

The target of series [8] is T4, CYP1A2 (Homo sapiens, UniProt P05177).
T4 sequence (P05177 whole entry): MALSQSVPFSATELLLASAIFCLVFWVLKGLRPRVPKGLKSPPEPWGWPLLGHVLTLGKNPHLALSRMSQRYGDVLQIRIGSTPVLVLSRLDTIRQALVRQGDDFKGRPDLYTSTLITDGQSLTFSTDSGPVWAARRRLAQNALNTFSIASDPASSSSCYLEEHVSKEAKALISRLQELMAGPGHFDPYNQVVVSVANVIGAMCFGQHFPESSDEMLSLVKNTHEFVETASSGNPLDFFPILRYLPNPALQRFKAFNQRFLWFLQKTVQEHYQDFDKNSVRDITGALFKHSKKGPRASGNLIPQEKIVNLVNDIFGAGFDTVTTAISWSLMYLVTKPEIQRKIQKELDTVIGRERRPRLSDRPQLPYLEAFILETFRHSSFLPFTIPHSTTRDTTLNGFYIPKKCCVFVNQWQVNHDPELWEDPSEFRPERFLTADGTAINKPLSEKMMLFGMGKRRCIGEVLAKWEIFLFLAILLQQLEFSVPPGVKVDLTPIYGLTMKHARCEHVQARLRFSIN
As to the kind of experiment: Inhibition of CYP1A2 in human liver microsomes assessed as reduction in phenacetin O-deethylase activity at 10 uM preincubated for 5 mins followed by NADPH addition and measured after 15 mins by LC-MS/MS analysis relative to control. The format is ADME. The settings on record: probe phenacetin (O-deethylation).

For series [9], the target named is CYP2C19 (Homo sapiens, UniProt P33261). Put plainly: Inhibition of CYP2C19 in human liver microsomes assessed as reduction in S-mephenytoin 4-hydroxylase activity at 10 uM preincubated for 5 mins followed by NADPH addition and measured after 15 mins by LC-MS/MS analysis relative to control. The series is classed as ADME. The following applies: probe S-mephenytoin (4-hydroxylation).

Series [10] deals with CYP2D6 (Homo sapiens, UniProt P10635). As to the kind of experiment: Inhibition of CYP2D6 in human liver microsomes assessed as reduction in dextromethorphan O-demethylase activity at 10 uM preincubated for 5 mins followed by NADPH addition and measured after 15 mins by LC-MS/MS analysis relative to control. The series is classed as ADME. The settings on record: probe dextromethorphan (O-demethylation).

The nature of series [11]: Metabolic stability in mouse liver microsomes assessed as compound remaining at 1 uM after 30 mins in presence of NADPH regeneration system by LC-MS/MS analysis. The series is classed as ADME, Microsome. The settings on record: read-out: Stability.
Series [12] is described as follows: Metabolic stability in dog liver microsomes assessed as compound remaining at 1 uM after 30 mins in presence of NADPH regeneration system by LC-MS/MS analysis. The settings on record: read-out: Stability. The format is ADME, Canis lupus familiaris, Microsome.
Series [13] deals with T5, Steroid hormone receptor ERR2 (Homo sapiens, UniProt O95718).
T5 sequence (O95718 whole entry): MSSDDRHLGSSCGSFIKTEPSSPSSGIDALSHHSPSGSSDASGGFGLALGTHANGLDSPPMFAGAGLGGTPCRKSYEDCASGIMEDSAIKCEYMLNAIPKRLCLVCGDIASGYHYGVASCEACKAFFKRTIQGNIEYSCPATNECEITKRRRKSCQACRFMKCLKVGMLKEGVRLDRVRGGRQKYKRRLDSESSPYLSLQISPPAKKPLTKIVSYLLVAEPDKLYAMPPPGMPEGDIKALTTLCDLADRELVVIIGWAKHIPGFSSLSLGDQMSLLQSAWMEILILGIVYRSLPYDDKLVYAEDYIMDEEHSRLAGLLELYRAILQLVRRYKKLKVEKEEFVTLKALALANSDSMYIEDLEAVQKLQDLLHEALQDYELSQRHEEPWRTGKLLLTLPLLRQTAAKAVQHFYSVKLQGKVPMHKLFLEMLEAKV
As to the kind of experiment: Binding affinity to ERRbeta (unknown origin) using fluorescein-conjugated coactivator PGC-1alpha incubated for 1 hr by TR-FRET assay.

Series [14] is described as follows: Effective permeability of the compound at 10 uM after 5 hrs by PAMPA. The format is ADME. The settings on record: read-out: Peff.

The values that follow come from ChEMBL document CHEMBL4411321, “Discovery of Potent, Selective, and Orally Bioavailable Estrogen-Related Receptor-γ Inverse Agonists To Restore the Sodium Iodide Symporter Function in Anaplastic Thyroid Cancer” (J Med Chem, 2019).

Structures are written as SMILES. pIC50: −log10 of the molar value.

CYP2D6, sequence (P10635 whole entry): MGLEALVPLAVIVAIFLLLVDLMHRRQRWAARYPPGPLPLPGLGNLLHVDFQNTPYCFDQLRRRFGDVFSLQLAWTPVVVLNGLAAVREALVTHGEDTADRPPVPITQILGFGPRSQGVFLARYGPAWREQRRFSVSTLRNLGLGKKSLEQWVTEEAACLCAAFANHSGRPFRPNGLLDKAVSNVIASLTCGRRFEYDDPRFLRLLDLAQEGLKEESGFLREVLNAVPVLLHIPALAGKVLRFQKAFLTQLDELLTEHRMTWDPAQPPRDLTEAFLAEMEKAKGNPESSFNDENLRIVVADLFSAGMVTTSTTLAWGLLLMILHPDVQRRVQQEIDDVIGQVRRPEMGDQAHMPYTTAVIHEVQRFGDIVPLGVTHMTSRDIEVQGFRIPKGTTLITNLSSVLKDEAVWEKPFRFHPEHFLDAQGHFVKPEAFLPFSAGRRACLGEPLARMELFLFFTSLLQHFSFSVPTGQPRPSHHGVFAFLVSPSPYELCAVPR
CYP2C19, sequence (P33261 whole entry): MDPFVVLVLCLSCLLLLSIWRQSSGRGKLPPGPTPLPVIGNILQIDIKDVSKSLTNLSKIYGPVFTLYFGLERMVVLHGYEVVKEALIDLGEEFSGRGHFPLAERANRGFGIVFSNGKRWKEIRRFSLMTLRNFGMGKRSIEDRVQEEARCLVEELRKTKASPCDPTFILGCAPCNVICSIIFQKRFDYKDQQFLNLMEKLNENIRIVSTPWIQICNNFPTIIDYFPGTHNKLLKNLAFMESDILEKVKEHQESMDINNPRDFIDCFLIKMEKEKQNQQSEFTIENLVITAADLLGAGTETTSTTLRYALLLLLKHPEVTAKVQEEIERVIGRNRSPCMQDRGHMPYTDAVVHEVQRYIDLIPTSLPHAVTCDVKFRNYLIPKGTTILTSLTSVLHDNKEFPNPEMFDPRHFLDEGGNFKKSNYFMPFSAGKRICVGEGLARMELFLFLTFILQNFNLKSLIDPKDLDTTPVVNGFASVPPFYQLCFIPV
CYP2C9, sequence (P11712 whole entry): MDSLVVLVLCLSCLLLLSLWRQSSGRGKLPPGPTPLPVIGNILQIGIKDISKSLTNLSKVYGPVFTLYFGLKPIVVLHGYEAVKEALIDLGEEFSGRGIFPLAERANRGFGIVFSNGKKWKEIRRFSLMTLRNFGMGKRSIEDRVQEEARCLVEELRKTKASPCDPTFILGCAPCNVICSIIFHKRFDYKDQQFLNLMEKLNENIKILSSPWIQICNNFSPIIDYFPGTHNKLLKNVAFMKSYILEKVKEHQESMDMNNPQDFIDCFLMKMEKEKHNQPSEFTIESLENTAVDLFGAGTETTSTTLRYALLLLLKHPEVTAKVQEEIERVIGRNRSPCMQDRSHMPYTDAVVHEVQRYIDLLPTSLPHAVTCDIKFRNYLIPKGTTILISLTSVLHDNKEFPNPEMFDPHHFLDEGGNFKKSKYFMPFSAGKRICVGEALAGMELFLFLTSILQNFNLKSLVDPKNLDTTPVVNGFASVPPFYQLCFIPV
CYP3A4, sequence (P08684 whole entry): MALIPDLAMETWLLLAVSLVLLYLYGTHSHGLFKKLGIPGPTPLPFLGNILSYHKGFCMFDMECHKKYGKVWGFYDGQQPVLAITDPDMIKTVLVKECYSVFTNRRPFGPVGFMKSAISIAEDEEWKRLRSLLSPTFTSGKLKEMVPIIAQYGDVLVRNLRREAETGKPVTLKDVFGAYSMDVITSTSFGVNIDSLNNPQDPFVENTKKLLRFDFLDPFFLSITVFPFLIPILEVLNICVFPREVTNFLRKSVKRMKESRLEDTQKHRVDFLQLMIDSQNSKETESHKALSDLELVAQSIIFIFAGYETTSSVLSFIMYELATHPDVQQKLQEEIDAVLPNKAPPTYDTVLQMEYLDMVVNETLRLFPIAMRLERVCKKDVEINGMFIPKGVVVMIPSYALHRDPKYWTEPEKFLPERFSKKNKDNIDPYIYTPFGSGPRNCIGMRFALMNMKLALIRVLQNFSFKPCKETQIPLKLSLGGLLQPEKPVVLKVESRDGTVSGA

For `CC(C)N1CCN(c2ccc(/C(=C(/CCCO)c3ccccc3)c3ccc(NS(=O)(=O)C4CC4)cc3)cc2)CC1`, the pIC50 in [1] was 5.44.
On the same count and under the same terms, for `OCCC/C(=C(\c1ccc(O)cc1)c1ccc(N2CCN(C3COC3)CC2)cc1)c1ccccc1` the value was 6.67; for `CN1CCN(c2ccc(/C(=C(/CCCO)c3ccccc3)c3ccc(N)cc3)cc2)CC1`, 6.85.
`OCCC/C(=C(\c1ccc(O)cc1)c1ccc(N2CCN(C3CCC3)CC2)cc1)c1ccccc1`: the pIC50 was under 5.00 in series [2], 5.78 in series [3] and 7.28 in [1].
Take `CN1CCN(c2ccc(/C(=C(/CCCO)c3ccccc3)c3ccc(Br)cc3)cc2)CC1`: the negative-log IC50 (pIC50) in series [2] and in [3] was under 5.00 each time.
`CC(C)N1CCN(c2ccc(/C(=C(/CCCO)c3ccccc3)c3ccc(NC(=N)N)cc3)cc2)CC1`: in [1], the negative logarithm of the IC50 (pIC50) is under 5.00.
For the molecule `OCCC/C(=C(\c1ccc(Br)cc1)c1ccc(N2CCNCC2)cc1)c1ccccc1`, the remaining at 0.5 h, 1 µM is 65.1% in series [4] and 84.7% in series [6]. In addition, the inhibition at 0.25 h, 10 µM is 45% in series [5]; 24% in [7]; 15% in [8]; 38.1% in series [9]; 29.3% in series [10]. The pIC50 in series [3] is under 5.00.
Consider `OCCC/C(=C(\c1ccc(O)cc1)c1ccc(N2CCN(C3CCCCC3)CC2)cc1)c1ccccc1`, for which the pIC50 in series [2] is 5.01; in series [3], 5.67; in series [1] it was 7.00.
On to `CC(C)N1CCN(c2ccc(/C(=C(/CCCO)c3ccccc3)c3cccc(Br)c3)cc2)CC1`, for which the remaining at 0.5 h, 1 µM was 53.6% in [4], 31% in series [11], 53.7% in series [6] and 68.4% in series [12]. In addition, the inhibition at 0.25 h, 10 µM in series [5] was found to be 60.1%; in series [7], 27%; in series [8], 2.5%; in series [9], 56.1%; in series [10] it was 70.4%. The pIC50 in series [2] is under 5.00; in series [3], under 5.00; in series [13] it was 5.84.
The molecule `CC(C)N1CCN(c2ccc(/C(=C(/CCCO)c3ccccc3)c3ccc(OS(C)(=O)=O)cc3)cc2)CC1` showed a negative-log IC50 (pIC50) in [1] of 5.58.
On the same count and under the same terms, for `CC(=O)Nc1ccc(/C(=C(\CCCO)c2ccccc2)c2ccc(N3CCN(C(C)C)CC3)cc2)cc1` the value was 5.36; for `N=C(N)N1CCN(c2ccc(/C(=C(/CCCO)c3ccccc3)c3ccc(O)cc3)cc2)CC1`, 6.29.
In the case of `CCN1CCN(c2ccc(/C(=C(/CCCO)c3ccccc3)c3ccc(O)cc3)cc2)CC1`, the pIC50 was under 5.00 in [2], 5.94 in series [3] and 7.30 in series [1].
In the case of `CC(C)N1CCN(c2ccc(/C(=C(/CCCO)c3ccccc3)c3ccc(Br)cc3)cc2)CC1.Cl.Cl`, the remaining at 0.5 h, 1 µM was over 100% in series [4], 48.5% in series [11], 74.2% in series [6] and 64.4% in series [12]. Further, the inhibition at 0.25 h, 10 µM in series [5] is 35.5%; in [7] it was 3.1%; in series [8] it was 6.5%; in series [9], 13.7%; in series [10], 28.5%. Besides, the pIC50 in series [2] and in [3] was under 5.00 each time. Moreover, the Papp at 5 h, 10 µM in series [14] stood at 0.37 ×10⁻⁶ cm/s.
As to `CC(C)N1CCN(c2ccc(/C(=C(/CCCO)c3ccccc3)c3ccc(OS(=O)(=O)C(F)(F)F)cc3)cc2)CC1`, in series [1], the pIC50 was 5.52.
In turn, `CN1CCN(c2ccc(/C(=C(/CCCO)c3ccccc3)c3ccc(OC(=O)C(C)(C)C)cc3)cc2)CC1` showed a pIC50 in series [1] of 5.57.
On the same count and under the same terms, for `CN1CCN(c2ccc(/C(=C(/CCCOC(=O)C(C)(C)C)c3ccccc3)c3ccc(O)cc3)cc2)CC1` the value was under 5.00.
For the molecule `CN1CCN(c2ccc(/C(=C(/CCCO)c3ccccc3)c3ccc(O)cc3)cc2)CC1`, the negative logarithm of the IC50 (pIC50) in series [2] is under 5.00; in [3], 5.77; in series [13], 5.70.
For the molecule `OCCC/C(=C(\c1ccc(O)cc1)c1ccc(N2CCN(C3CCCC3)CC2)cc1)c1ccccc1`, the pIC50 in series [1] is 6.94.
Same read-out and setting: for `CC(C)N1CCN(c2cccc(/C(=C(/CCCO)c3ccccc3)c3cccc(O)c3)c2)CC1` the value was 5.25; for `CN1CCN(c2ccc(/C(=C(/CCCOC(=O)C(C)(C)C)c3ccccc3)c3ccc(OC(=O)C(C)(C)C)cc3)cc2)CC1`, under 5.00.
In the case of `CC(C)N1CCN(c2cccc(/C(=C(/CCCO)c3ccccc3)c3ccc(O)cc3)c2)CC1`, the pIC50 in series [1] is under 5.00.
Regarding `OCCC/C(=C(\c1ccc(O)cc1)c1ccc(N2CCNCC2)cc1)c1ccccc1`, the figures for the pIC50 in series [2], in series [3] and in series [13] were under 5.00, 5.60 and 5.34, respectively.
`CC(C)N1CCN(c2ccc(/C(=C(/CCCO)c3ccccc3)c3ccc(OS(=O)(=O)C4CC4)cc3)cc2)CC1` had a pIC50 in series [1] of 5.87.
